Converted amounts (≈) assume the structure as drawn.
Experiments:
[1] = tested on: Human immunodeficiency virus 1; test: (§1) Inhibitory concentration against HIV-1 was determined; type: functional, organism-based
[2] = tested on: MT2; test: Inhibition concentration required to protect 50% of cells(MT-2) from HIV induced death was determined; type: functional; conditions: Homo sapiens, read-out: TC50 (the source's name)
[3] = tested on: MT2; test: Inhibition concentration required to protect 90% of cells(MT-2) from HIV induced death was determined; type: functional; conditions: Homo sapiens
[4] = tested on: MT2; test: Inhibition concentration required to protect 50% of cells(MT-2) from HIV-1(3b) induced death was determined; type: functional; conditions: Homo sapiens, read-out: TC50 (the source's name)
[5] = tested on: MT2; test: Inhibition concentration required to protect 90% of cells(MT-2) from HIV-1(3b) induced death was determined; type: functional; conditions: Homo sapiens
[6] = tested on: MT2; test: Inhibition concentration required to protect 90% of cells(MT-2) from HIV-1(rf) induced death was determined; type: functional; conditions: Homo sapiens
[7] = tested on: MT2; test: Inhibition concentration required to protect 50% of cells(MT-2) from HIV-1(rod) induced death was determined; type: functional, cell-based; conditions: Homo sapiens
[8] = tested on: Human immunodeficiency virus 1; test: as §1; type: functional

Compound | CC50 [2] | IC90 [3] | also measured
CC(C)=CCN1Cc2cccc3[nH]c(=S)n(c23)C[C@@H]1C |  |  | IC50 [1]: 0.028 µM
O=C1Cn2cccc2-c2ccccc2N1 | > 50 µg/mL | > 50 µg/mL | 
O=C(O)C[C@H]1C(=O)Nc2ccccc2-c2cccn21 | > 50 µg/mL | > 50 µg/mL | 
O=Cc1ccc2n1CC(=O)Nc1ccccc1-2 | > 50 µg/mL | > 50 µg/mL | 
O=C1c2ccccc2C(=O)N1CCCCN1C(=O)[C@H](Cc2ccc(O)cc2)n2cccc2-c2ccccc21 | 23 µg/mL (≈ 45.5 µM) | > 23 µg/mL | 
O=C(C[C@H]1C(=O)Nc2ccccc2-c2cccn21)OCc1ccccc1 | 10 µg/mL (≈ 28.9 µM) | 0.29 µg/mL (≈ 0.837 µM) | CC50 [4]: > 10 µg/mL; IC90 [5]: > 0.3 µg/mL; IC90 [6]: 0.29 µg/mL (≈ 0.837 µM); IC50 [7]: 3 µg/mL (≈ 8.66 µM); IC90 [8]: 0.8 µM
O=C1Nc2ccccc2-c2cccn2[C@H]1Cc1ccccc1 | 21 µg/mL (≈ 72.8 µM) | > 21 µg/mL | 
O=C1c2ccccc2C(=O)N1CCCCCN1C(=O)[C@H](Cc2ccc(O)cc2)n2cccc2-c2ccccc21 | > 50 µg/mL | 2.6 µg/mL (≈ 5 µM) | 
Cc1ccnc2c1NC(=O)c1cccnc1N2C1CC1 [NEVIRAPINE] |  |  | IC50 [1]: 0.04 µM
O=Cc1ccc2n1[C@@H](Cc1ccccc1)C(=O)Nc1ccccc1-2 | 2.5 µg/mL (≈ 7.9 µM) | > 2.5 µg/mL | 
O=C1Nc2ccccc2-c2cccn2[C@H]1Cc1ccc(O)cc1 | 23 µg/mL (≈ 75.6 µM) | > 23 µg/mL | 
O=C1[C@H](Cc2ccc(O)cc2)n2cccc2-c2ccccc2N1CCc1ccc(O)cc1 | 10 µg/mL (≈ 23.6 µM) | 0.8 µg/mL (≈ 1.88 µM) | 
CC(C)=CCN1Cc2cc(Cl)cc3nc(S)n(c23)CC1C (stereo not drawn) [TIBO] |  |  | CC50 [4]: 55 µg/mL (≈ 171 µM); IC90 [5]: 1.5 µg/mL (≈ 4.66 µM); IC90 [6]: 0.15 µg/mL (≈ 0.466 µM); IC50 [7]: > 50 µg/mL
CN1C(=O)[C@H](Cc2ccc(O)cc2)n2cccc2-c2ccccc21 | 5.2 µg/mL (≈ 16.3 µM) | > 5.2 µg/mL | 
